According to patent US12583921B2, “Targeted anti-SGLT1 avian IgY antibodies as treatment of pre-diabetes, type 2 diabetes and gestational diabetes” (Lay Sciences, Inc., priority 2022, dated 2026):
Marks after values point to notes of the source that are not given here.

Experiments:
Wistar rats = assay: Oral Glucose Tolerance Test (OGTT) model in Wistar rats, single dose; assay type: in vivo; conditions: for blood glucose level, mean / area under curve, mean: metformin 200 mg/kg, n = 6
Procedure: An animal study was conducted to assess the effect of administering the anti-SGLT1 IgY antibody in an Oral Glucose Tolerance Test (OGTT) model in Wistar rats. The OGTT test was performed to determine if an intervention has blocked the intestinal absorption of orally given glucose load, and then lowering of the increase in blood glucose levels is observed. […] The OGTT studies were conducted on overnight fasting animals.

[1] = Procedure: The animals were acclimatized and were randomly distributed into 6 groups, each group comprised of 6 rats. The rats in group G1 served as a normal control group and were administered the vehicle (normal saline) alone at the dose volume of 10 mL/kg, whereas the rats in groups G2 and G3 were administered metformin and anti-SGLT1 IgY antibody, respectively, at the doses of 200 mg/kg and 500 mg/kg body weight for single administration.
SGLT1 = biological target: T1, SGLT1 (Homo sapiens, UniProt P13866); assay: Inhibition of glucose uptake in human intestinal cell line CaCo2; assay type: cell-based; conditions: CaCo2 cells; 800 μg/ml; relative to uptake without intervention; FIG. 3
T1 construct: a human intestinal cell line CaCo2, which expresses SGLT1; endogenous in cells; host or cells: CaCo2
T1 sequence (P13866 1-664): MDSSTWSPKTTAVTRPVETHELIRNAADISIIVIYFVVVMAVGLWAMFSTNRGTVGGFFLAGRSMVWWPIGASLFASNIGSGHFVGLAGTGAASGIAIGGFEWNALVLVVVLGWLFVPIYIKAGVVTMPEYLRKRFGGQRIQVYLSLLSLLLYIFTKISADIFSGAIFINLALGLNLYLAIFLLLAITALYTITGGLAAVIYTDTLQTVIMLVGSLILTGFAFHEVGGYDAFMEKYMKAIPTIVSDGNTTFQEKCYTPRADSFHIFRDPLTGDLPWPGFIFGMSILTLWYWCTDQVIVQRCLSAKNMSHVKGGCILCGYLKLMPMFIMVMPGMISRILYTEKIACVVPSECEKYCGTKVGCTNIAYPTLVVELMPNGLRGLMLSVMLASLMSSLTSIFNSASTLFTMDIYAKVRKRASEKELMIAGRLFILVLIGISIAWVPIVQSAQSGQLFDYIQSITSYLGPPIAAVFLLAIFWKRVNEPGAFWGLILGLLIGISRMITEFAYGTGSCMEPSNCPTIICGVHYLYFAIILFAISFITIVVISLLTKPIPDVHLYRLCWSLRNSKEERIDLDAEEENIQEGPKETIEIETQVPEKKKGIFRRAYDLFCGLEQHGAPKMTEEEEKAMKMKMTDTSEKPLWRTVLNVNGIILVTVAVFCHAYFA
Procedure: The IgY antibodies were then tested for their ability to inhibit the uptake of glucose in a human intestinal cell line CaCo2, which expresses SGLT1. The data in FIG. 3 are shown as percent inhibition of glucose uptake relative to glucose uptake in the absence of any intervention. […] In the figure, ** is P<0.01 Student's t-tests were performed to compare between the glucose inhibition shown by controls, peptide, and different concentration of IgY antibodies.

[2] = 30, 60, 90 and 120 min after 2 g/kg oral glucose

percent inhibition of glucose uptake (SGLT1) | Molecule | blood glucose level, mean (Wistar rats; 0 minutes (before glucose 2 gm/kg), anti-SGLT1 IgY 500 mg/kg given 30 min before) [mg/dL] | area under curve, mean (Wistar rats; 0 minutes, anti-SGLT1 IgY 500 mg/kg) [mg/dL] | area under curve compared to normal control group G1 (Wistar rats; [2]) | blood glucose level compared to normal control group G1 (Wistar rats; [2]) | blood glucose level, mean (Wistar rats; 30 minutes after glucose 2 gm/kg, anti-SGLT1 IgY 500 mg/kg) | area under curve, mean (Wistar rats; 30 minutes, anti-SGLT1 IgY 500 mg/kg) | blood glucose level, mean (Wistar rats; 60 minutes after glucose 2 gm/kg, anti-SGLT1 IgY 500 mg/kg) | area under curve, mean (Wistar rats; 60 minutes, anti-SGLT1 IgY 500 mg/kg) | blood glucose level, mean (Wistar rats; 90 minutes after glucose 2 gm/kg, anti-SGLT1 IgY 500 mg/kg) | area under curve, mean (Wistar rats; 90 minutes, anti-SGLT1 IgY 500 mg/kg) | blood glucose level, mean (Wistar rats; 120 minutes after glucose 2 gm/kg, anti-SGLT1 IgY 500 mg/kg) | area under curve, mean (Wistar rats; 120 minutes, anti-SGLT1 IgY 500 mg/kg) | blood glucose level, mean (Wistar rats; 180 minutes after glucose 2 gm/kg, anti-SGLT1 IgY 500 mg/kg) | area under curve, mean (Wistar rats; 180 minutes, anti-SGLT1 IgY 500 mg/kg) | Mortality ([1]; male rats, single dose, metformin 200 mg/kg, anti-SGLT1 IgY 500 mg/kg, deaths/animals observed) | Individual Animal Clinical Signs Observations ([1]; male, Wistar, rat, in vivo, 1 day) | Body Weights, mean ([1]; rat, in vivo) [g]
– | CN(C)C(=N)N=C(N)N [Metformin, metformin] | 108.17 | 0.00 | Significantly decreased | Significantly decreased | 161.67** mg/dL | 8.99* mg/dL | 127.17* mg/dL | 9.63** mg/dL | 121.50* mg/dL | 8.29** mg/dL | 114.00** mg/dL | 7.85** mg/dL | 106.33** mg/dL | 3.67** mg/dL | 0/6 | 1 | 232.63
able to block the uptake of glucose | QSGQLFDYIQSITSYLGPP [peptide used as antigen] | – | – | – | – | – | – | – | – | – | – | – | – | – | – | – | – | –
